US12497365B2, “4-pyridinyl formamide compound or derivative thereof, preparation method therefor, herbicidal composition and use thereof” (Qingdao Kingagroot Chemical Compound Co., Ltd., priority 2019, dated 2025)

What was measured:
Test in all cases: Weeding effect in post-emergence stage
Format in all cases: in vivo
Conditions in all cases: active ingredient 2000 g/ha, 3 weeks after application, fresh weight control rate
[1] = test system: Descurainia sophia
Description: (§1) The activity level criteria for plant damage (i.e., growth control rate) are as follows:
(§2) The above growth control rates are fresh weight control rates.
(§3) Experiment on weeding effect in post-emergence stage: monocotyledonous and dicotyledonous weed seeds and major crop seeds (wheat, corn, rice, soybean, cotton, oilseed rape, millet, sorghum) were placed in plastic pots filled with soil, then covered with 0.5-2 cm of soil, allowed to grow in a good greenhouse environment. After 2 weeks of sowing, the test plants were treated in the 2-3 leaf stage. The tested compounds of the present invention were respectively dissolved in acetone at the dosage of 2000, 1000, 500, 250, 125 g/ha, then added with Tween 80 and 1.5 liter/ha of emulsifiable concentrate of methyl oleate as synergist, diluted with a certain amount of water to obtain a solution with a certain concentration, and sprayed with a spray tower onto the plants. After the application, the plants were cultured for 3 weeks in the greenhouse, and then the experimental results were listed in Table 1.

[2] = test system: Amaranthus retroflexus L.
Description: as §1, §2, §3

[3] = test system: Chenopodium album
Description: as §1, §2, §3

[4] = test system: Abutilon theophrasti
Description: as §1, §2, §3

Compound | Weeding effect, activity level (growth control rate), Descurainia sophia [1] | Weeding effect, activity level (growth control rate), Amaranthus retroflexus L. [2] | Weeding effect, activity level (growth control rate), Chenopodium album [3] | Weeding effect, activity level (growth control rate), Abutilon theophrasti [4]
Cc1nccc(C(=O)Nc2nnnn2C)c1Cl [Compound 1-1] | 5 (Level 5: growth control rate is above 85%) | 5 (Level 5: growth control rate is above 85%) | 5 (Level 5: growth control rate is above 85%) | 5 (Level 5: growth control rate is above 85%)
Cn1nnnc1NC(=O)c1ccnc(C(C)(C)C)c1Cl [Compound 1-2] | 5 (Level 5: growth control rate is above 85%) | 5 (Level 5: growth control rate is above 85%) | 5 (Level 5: growth control rate is above 85%) | 5 (Level 5: growth control rate is above 85%)
Cn1nnnc1NC(=O)c1ccnc(C2CC2)c1Cl [Compound 1-3] | 5 (Level 5: growth control rate is above 85%) | 5 (Level 5: growth control rate is above 85%) | 5 (Level 5: growth control rate is above 85%) | 5 (Level 5: growth control rate is above 85%)
Cn1nnnc1NC(=O)c1ccnc(C2CCCCC2)c1Cl [Compound 1-4] | 5 (Level 5: growth control rate is above 85%) | 5 (Level 5: growth control rate is above 85%) | 5 (Level 5: growth control rate is above 85%) | 5 (Level 5: growth control rate is above 85%)
Cn1nnnc1NC(=O)c1ccnc(C2=CCCCC2)c1Cl [Compound 1-5] | 5 (Level 5: growth control rate is above 85%) | 5 (Level 5: growth control rate is above 85%) | 5 (Level 5: growth control rate is above 85%) | 5 (Level 5: growth control rate is above 85%)
Cn1nnnc1NC(=O)c1ccnc(C2=CCN(C(=O)OC(C)(C)C)CC2)c1Cl [Compound 1-6] | 5 (Level 5: growth control rate is above 85%) | 5 (Level 5: growth control rate is above 85%) | 5 (Level 5: growth control rate is above 85%) | 5 (Level 5: growth control rate is above 85%)
Cn1nnnc1NC(=O)c1ccnc(C2=CCOCC2)c1Cl [Compound 1-7] | 5 (Level 5: growth control rate is above 85%) | 5 (Level 5: growth control rate is above 85%) | 5 (Level 5: growth control rate is above 85%) | 5 (Level 5: growth control rate is above 85%)
Cn1nnnc1NC(=O)c1ccnc(-c2ccccc2)c1Cl [Compound 1-8] | 5 (Level 5: growth control rate is above 85%) | 5 (Level 5: growth control rate is above 85%) | 5 (Level 5: growth control rate is above 85%) | 5 (Level 5: growth control rate is above 85%)
Cc1ccccc1-c1nccc(C(=O)Nc2nnnn2C)c1Cl [Compound 1-9] | 5 (Level 5: growth control rate is above 85%) | 5 (Level 5: growth control rate is above 85%) | 5 (Level 5: growth control rate is above 85%) | 5 (Level 5: growth control rate is above 85%)
Cc1cccc(-c2nccc(C(=O)Nc3nnnn3C)c2Cl)c1 [Compound 1-10] | 5 (Level 5: growth control rate is above 85%) | 5 (Level 5: growth control rate is above 85%) | 5 (Level 5: growth control rate is above 85%) | 5 (Level 5: growth control rate is above 85%)
Cc1ccc(-c2nccc(C(=O)Nc3nnnn3C)c2Cl)cc1 [Compound 1-11] | 5 (Level 5: growth control rate is above 85%) | 5 (Level 5: growth control rate is above 85%) | 5 (Level 5: growth control rate is above 85%) | 5 (Level 5: growth control rate is above 85%)
CCc1ccccc1-c1nccc(C(=O)Nc2nnnn2C)c1Cl [Compound 1-12] | 5 (Level 5: growth control rate is above 85%) | 5 (Level 5: growth control rate is above 85%) | 5 (Level 5: growth control rate is above 85%) | 5 (Level 5: growth control rate is above 85%)
CCCCCc1ccc(-c2nccc(C(=O)Nc3nnnn3C)c2Cl)cc1 [Compound 1-13] | 5 (Level 5: growth control rate is above 85%) | 5 (Level 5: growth control rate is above 85%) | 5 (Level 5: growth control rate is above 85%) | 5 (Level 5: growth control rate is above 85%)
CCCC1CCC(c2ccc(-c3nccc(C(=O)Nc4nnnn4C)c3Cl)cc2)CC1 (stereo not drawn) [Compound 1-14] | 5 (Level 5: growth control rate is above 85%) | 5 (Level 5: growth control rate is above 85%) | 5 (Level 5: growth control rate is above 85%) | 5 (Level 5: growth control rate is above 85%)
Cn1nnnc1NC(=O)c1ccnc(-c2cccc(F)c2)c1Cl [Compound 1-16] | 5 (Level 5: growth control rate is above 85%) | 5 (Level 5: growth control rate is above 85%) | 5 (Level 5: growth control rate is above 85%) | 5 (Level 5: growth control rate is above 85%)
